PMC10763615, “Identification and engineering of potent cyclic peptides with selective or promiscuous binding through biochemical profiling and bioinformatic data analysis” (RSC Chemical Biology, 2023)
Positions of bridges follow the written chain, without caps; N, C: chain ends. Residues, ends and D or L forms follow the SMILES beside them.

Assays:
Assay type in all cases: binding
FGF-R4 ECD = target: T1, FGF-R4 ECD (Homo sapiens, UniProt P22455); experiment: single concentration BLI of crude peptides; details: crude T18 selection 1 (1:1:1) peptides, single concentration BLI (Table S4); read-out: KD (4)
T1 construct: DNA constructs for the extracellular domain (ECD) of human FGF-; HPC4 (C); made in house; host or cells: HEK 293-6E
T1 sequence (P22455 22-369 limits assumed): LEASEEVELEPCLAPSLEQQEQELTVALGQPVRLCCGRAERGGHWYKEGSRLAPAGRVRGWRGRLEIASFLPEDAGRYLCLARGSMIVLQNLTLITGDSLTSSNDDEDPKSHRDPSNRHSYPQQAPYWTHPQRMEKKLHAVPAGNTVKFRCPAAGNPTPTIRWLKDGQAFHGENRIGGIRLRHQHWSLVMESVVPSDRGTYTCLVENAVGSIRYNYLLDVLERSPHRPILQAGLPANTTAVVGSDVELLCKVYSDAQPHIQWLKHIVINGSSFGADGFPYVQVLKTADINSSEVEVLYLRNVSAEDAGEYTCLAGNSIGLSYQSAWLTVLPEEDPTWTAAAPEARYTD
Method in brief: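 BLI, streptavidin sensors loaded with biotinylated receptor ECD. Single-point: ~1 μM crude peptide, PBS pH7.4/0.05% Tween-20/0.01% BSA; association then dissociation in buffer. KD corrected for UPLC-CAD-determined concentration.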

FGF-R3C ECD = target: T2, FGF-R3C ECD (Homo sapiens, UniProt P22607); experiment: biochemical; design: DNA constructs for the extracellular domain (ECD) of human FGF-; HPC4 (C); made in house; host or cells: HEK 293-6E
T2 sequence (P22607 23-375 limits assumed): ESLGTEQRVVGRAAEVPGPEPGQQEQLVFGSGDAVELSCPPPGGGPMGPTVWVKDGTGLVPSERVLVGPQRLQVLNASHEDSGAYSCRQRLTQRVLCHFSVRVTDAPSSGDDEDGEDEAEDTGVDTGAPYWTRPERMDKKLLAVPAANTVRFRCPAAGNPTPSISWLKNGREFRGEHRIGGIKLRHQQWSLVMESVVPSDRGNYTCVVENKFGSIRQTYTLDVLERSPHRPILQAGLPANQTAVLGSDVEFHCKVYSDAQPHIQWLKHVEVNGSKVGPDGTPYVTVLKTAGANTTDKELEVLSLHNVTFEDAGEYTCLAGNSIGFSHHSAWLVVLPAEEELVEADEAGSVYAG
Method in brief: (§1)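 Biolayer interferometry with biotinylated FGF-R ECD on streptavidin biosensors in PBS pH 7.4, 0.05% Tween-20, 0.01% BSA. Multi-concentration: purified peptide dilution series fitted to a multi-point KD model.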

FGF-R1C ECD = target: T3, FGF-R1C ECD (Homo sapiens, UniProt P11362); experiment: biochemical; design: DNA constructs for the extracellular domain (ECD) of human FGF-; HPC4 (C); made in house; host or cells: HEK 293-6E
T3 sequence (P11362 22-376 limits assumed): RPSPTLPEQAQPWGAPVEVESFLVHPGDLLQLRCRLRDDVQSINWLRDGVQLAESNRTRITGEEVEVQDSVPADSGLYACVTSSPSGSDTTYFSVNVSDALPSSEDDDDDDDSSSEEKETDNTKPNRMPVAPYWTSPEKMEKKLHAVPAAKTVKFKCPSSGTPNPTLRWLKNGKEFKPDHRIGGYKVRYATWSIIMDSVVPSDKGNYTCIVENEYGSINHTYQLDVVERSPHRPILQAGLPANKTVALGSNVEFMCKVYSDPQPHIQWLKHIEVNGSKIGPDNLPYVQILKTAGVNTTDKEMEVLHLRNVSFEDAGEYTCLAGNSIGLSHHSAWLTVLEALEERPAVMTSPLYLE
Method in brief: as §1

Structure (SMILES) | Kd (FGF-R4 ECD) | Kd (FGF-R3C ECD) | Kd (FGF-R1C ECD)
CSCC[C@H](NC(C)=O)C(=O)N[C@H]1CSSC[C@@H](C(=O)NCC(=O)N[C@@H](CO)C(=O)NCC(=O)N[C@@H](CO)C(=O)N[C@@H](CCC(=O)O)C(=O)N[C@@H](CCC(=O)O)C(=O)NCC(=O)N[C@@H](CO)C(=O)NCC(=O)N[C@@H](CO)C(=O)N[C@@H](CC(=O)O)C(=O)N[C@@H](Cc2ccc(O)cc2)C(=O)N[C@@H](CCCCN)C(=O)N[C@@H](CC(=O)O)C(=O)N[C@@H](CC(=O)O)C(=O)N[C@@H](CC(=O)O)C(=O)N[C@@H](CC(=O)O)C(=O)N[C@@H](CCCCN)C(N)=O)NC(=O)[C@H](Cc2c[nH]cn2)NC(=O)[C@H](Cc2ccccc2)NC(=O)[C@H](CC(C)C)NC(=O)[C@H](CCCCN)NC(=O)[C@H](Cc2c[nH]c3ccccc23)NC(=O)[C@H](Cc2ccc(O)cc2)NC(=O)[C@H](Cc2ccc(O)cc2)NC(=O)[C@H](CC(C)C)NC(=O)[C@H](Cc2c[nH]cn2)NC(=O)[C@H](CCCNC(=N)N)NC(=O)CNC(=O)[C@H]([C@@H](C)O)NC1=O (Ac-MCTGRHLYYWKLFHCGSGSEEGSGSDYKDDDDK-NH2; disulfide 2-15) | 0.01 µM | > 10 µM | > 10 µM
CSCC[C@H](NC(C)=O)C(=O)N[C@H]1CSSC[C@@H](C(=O)NCC(=O)N[C@@H](CO)C(=O)NCC(=O)N[C@@H](CO)C(=O)N[C@@H](CC(=O)O)C(=O)N[C@@H](Cc2ccc(O)cc2)C(=O)N[C@@H](CCCCN)C(=O)N[C@@H](CC(=O)O)C(=O)N[C@@H](CC(=O)O)C(=O)N[C@@H](CC(=O)O)C(=O)N[C@@H](CC(=O)O)C(=O)N[C@@H](CCCCN)C(N)=O)NC(=O)[C@H](CCC(N)=O)NC(=O)[C@H](Cc2c[nH]cn2)NC(=O)[C@H](Cc2c[nH]c3ccccc23)NC(=O)[C@H](CC(C)C)NC(=O)[C@H]([C@@H](C)O)NC(=O)[C@H](CCC(=O)O)NC(=O)[C@H](Cc2ccc(O)cc2)NC(=O)[C@@H]2CCCN2C(=O)[C@H](Cc2c[nH]cn2)NC(=O)[C@H](CCCNC(=N)N)NC(=O)[C@H](Cc2c[nH]cn2)NC(=O)[C@H]([C@@H](C)O)NC1=O (Ac-MCTHRHPYETLWHQCGSGSDYKDDDDK-NH2; disulfide 2-15) | > 10 µM | > 10 µM | > 10 µM
CC[C@H](C)[C@@H]1NC(=O)[C@H](CC(C)C)NC(=O)[C@H](Cc2ccc(O)cc2)NC(=O)[C@H](Cc2c[nH]cn2)NC(=O)[C@H](Cc2c[nH]cn2)NC(=O)CNC(=O)[C@H](CC(C)C)NC(=O)[C@H](C(C)C)NC(=O)[C@H](Cc2ccccc2)NC(=O)[C@H](CC(=O)O)NC(=O)[C@H](Cc2ccc(O)cc2)NC(=O)[C@H]([C@@H](C)O)NC(=O)[C@@H](NC(=O)[C@H](CCSC)NC(C)=O)CSSC[C@@H](C(=O)NCC(=O)N[C@@H](CO)C(=O)NCC(=O)N[C@@H](CO)C(=O)N[C@@H](CC(=O)O)C(=O)N[C@@H](Cc2ccc(O)cc2)C(=O)N[C@@H](CCCCN)C(=O)N[C@@H](CC(=O)O)C(=O)N[C@@H](CC(=O)O)C(=O)N[C@@H](CC(=O)O)C(=O)N[C@@H](CC(=O)O)C(=O)N[C@@H](CCCCN)C(N)=O)NC1=O (Ac-MCTYDFVLGHHYLICGSGSDYKDDDDK-NH2; disulfide 2-15) | > 10 µM | > 10 µM | > 10 µM
CSCC[C@H](NC(C)=O)C(=O)N[C@H]1CSSC[C@@H](C(=O)NCC(=O)N[C@@H](CO)C(=O)NCC(=O)N[C@@H](CO)C(=O)N[C@@H](CC(=O)O)C(=O)N[C@@H](Cc2ccc(O)cc2)C(=O)N[C@@H](CCCCN)C(=O)N[C@@H](CC(=O)O)C(=O)N[C@@H](CC(=O)O)C(=O)N[C@@H](CC(=O)O)C(=O)N[C@@H](CC(=O)O)C(=O)N[C@@H](CCCCN)C(N)=O)NC(=O)[C@H](Cc2c[nH]cn2)NC(=O)[C@H](CC(C)C)NC(=O)[C@H](Cc2ccc(O)cc2)NC(=O)[C@H](CC(C)C)NC(=O)[C@H](CCC(=O)O)NC(=O)[C@H](CCC(=O)O)NC(=O)[C@H](Cc2ccccc2)NC(=O)[C@H](CC(C)C)NC(=O)[C@H](Cc2ccccc2)NC(=O)[C@H](CCC(=O)O)NC(=O)[C@H](Cc2ccc(O)cc2)NC(=O)[C@H]([C@@H](C)O)NC1=O (Ac-MCTYEFLFEELYLHCGSGSDYKDDDDK-NH2; disulfide 2-15) | > 10 µM | > 10 µM | > 10 µM
CSCC[C@H](NC(C)=O)C(=O)N[C@H]1CSSC[C@@H](C(=O)NCC(=O)N[C@@H](CO)C(=O)NCC(=O)N[C@@H](CO)C(=O)N[C@@H](CC(=O)O)C(=O)N[C@@H](Cc2ccc(O)cc2)C(=O)N[C@@H](CCCCN)C(=O)N[C@@H](CC(=O)O)C(=O)N[C@@H](CC(=O)O)C(=O)N[C@@H](CC(=O)O)C(=O)N[C@@H](CC(=O)O)C(=O)N[C@@H](CCCCN)C(N)=O)NC(=O)[C@H](CCCNC(=N)N)NC(=O)[C@H](Cc2c[nH]cn2)NC(=O)[C@H](Cc2ccccc2)NC(=O)[C@H](CC(C)C)NC(=O)[C@H](CCCCN)NC(=O)[C@H](Cc2ccc(O)cc2)NC(=O)[C@H](Cc2ccc(O)cc2)NC(=O)[C@H](Cc2ccc(O)cc2)NC(=O)[C@H](C(C)C)NC(=O)[C@H](Cc2ccc(O)cc2)NC(=O)[C@H]([C@@H](C)O)NC1=O (Ac-MCTYVYYYKLFHRCGSGSDYKDDDDK-NH2; disulfide 2-14) | 0.003 µM | > 10 µM | > 10 µM
CC[C@H](C)[C@@H]1NC(=O)[C@H](Cc2ccc(O)cc2)NC(=O)[C@H](CCCCN)NC(=O)[C@H](C(C)C)NC(=O)[C@@H](NC(=O)[C@H](CCSC)NC(C)=O)CSSC[C@@H](C(=O)NCC(=O)N[C@@H](CO)C(=O)NCC(=O)N[C@@H](CO)C(=O)N[C@@H](CC(=O)O)C(=O)N[C@@H](Cc2ccc(O)cc2)C(=O)N[C@@H](CCCCN)C(=O)N[C@@H](CC(=O)O)C(=O)N[C@@H](CC(=O)O)C(=O)N[C@@H](CC(=O)O)C(=O)N[C@@H](CC(=O)O)C(=O)N[C@@H](CCCCN)C(N)=O)NC(=O)[C@H](Cc2c[nH]cn2)NC(=O)[C@H](Cc2ccccc2)NC(=O)[C@H](C(C)C)NC(=O)[C@H](CO)NC(=O)[C@H](Cc2c[nH]c3ccccc23)NC(=O)[C@H](Cc2ccc(O)cc2)NC(=O)[C@H](CCCCN)NC1=O (Ac-MCVKYIKYWSVFHCGSGSDYKDDDDK-NH2; disulfide 2-14) | 0.017 µM | > 10 µM | > 10 µM
CSCC[C@H](NC(C)=O)C(=O)N[C@H]1CSSC[C@@H](C(=O)NCC(=O)N[C@@H](CO)C(=O)NCC(=O)N[C@@H](CO)C(=O)N[C@@H](CC(=O)O)C(=O)N[C@@H](Cc2ccc(O)cc2)C(=O)N[C@@H](CCCCN)C(=O)N[C@@H](CC(=O)O)C(=O)N[C@@H](CC(=O)O)C(=O)N[C@@H](CC(=O)O)C(=O)N[C@@H](CC(=O)O)C(=O)N[C@@H](CCCCN)C(N)=O)NC(=O)[C@H](Cc2ccc(O)cc2)NC(=O)[C@H](Cc2c[nH]c3ccccc23)NC(=O)[C@H](CC(N)=O)NC(=O)[C@H](CCCNC(=N)N)NC(=O)[C@H](CC(=O)O)NC(=O)[C@H](CC(C)C)NC(=O)[C@H](CCCNC(=N)N)NC(=O)[C@H](Cc2ccc(O)cc2)NC(=O)[C@H](CCCCN)NC(=O)[C@H](Cc2c[nH]c3ccccc23)NC(=O)[C@H](C(C)C)NC1=O (Ac-MCVWKYRLDRNWYCGSGSDYKDDDDK-NH2; disulfide 2-14) | 2.04 µM | > 10 µM | 0.078 µM
CSCC[C@H](NC(C)=O)C(=O)N[C@H]1CSSC[C@@H](C(=O)NCC(=O)N[C@@H](CO)C(=O)NCC(=O)N[C@@H](CO)C(=O)N[C@@H](CC(=O)O)C(=O)N[C@@H](Cc2ccc(O)cc2)C(=O)N[C@@H](CCCCN)C(=O)N[C@@H](CC(=O)O)C(=O)N[C@@H](CC(=O)O)C(=O)N[C@@H](CC(=O)O)C(=O)N[C@@H](CC(=O)O)C(=O)N[C@@H](CCCCN)C(N)=O)NC(=O)[C@H](Cc2c[nH]cn2)NC(=O)[C@H](Cc2c[nH]c3ccccc23)NC(=O)[C@H](CC(N)=O)NC(=O)[C@H](Cc2ccc(O)cc2)NC(=O)[C@H](Cc2c[nH]cn2)NC(=O)[C@H](Cc2c[nH]cn2)NC(=O)[C@H](CO)NC(=O)[C@H](Cc2ccc(O)cc2)NC(=O)[C@H](CCC(N)=O)NC(=O)[C@H](Cc2c[nH]c3ccccc23)NC(=O)[C@H](C(C)C)NC1=O (Ac-MCVWQYSHHYNWHCGSGSDYKDDDDK-NH2; disulfide 2-14) | > 10 µM | > 10 µM | > 10 µM
